From patent US10112929B2, “Lactams as inhibitors of rock” (BRISTOL-MYERS SQUIBB COMPANY, priority 2015, dated 2018)
Where a name gives a salt, the structure may show the parent alone.

target: ROCK2 (Homo sapiens (Human), UniProt O75116); assay: biochemical
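Further: rho kinase enzyme reaction halted with EDTA, phospho- and non-phospho peptide separated for read-out, kinase activity inhibition derived across a dose-response series, DMSO under 2%.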

Chain of ROCK2 (O75116 whole entry, species assumed): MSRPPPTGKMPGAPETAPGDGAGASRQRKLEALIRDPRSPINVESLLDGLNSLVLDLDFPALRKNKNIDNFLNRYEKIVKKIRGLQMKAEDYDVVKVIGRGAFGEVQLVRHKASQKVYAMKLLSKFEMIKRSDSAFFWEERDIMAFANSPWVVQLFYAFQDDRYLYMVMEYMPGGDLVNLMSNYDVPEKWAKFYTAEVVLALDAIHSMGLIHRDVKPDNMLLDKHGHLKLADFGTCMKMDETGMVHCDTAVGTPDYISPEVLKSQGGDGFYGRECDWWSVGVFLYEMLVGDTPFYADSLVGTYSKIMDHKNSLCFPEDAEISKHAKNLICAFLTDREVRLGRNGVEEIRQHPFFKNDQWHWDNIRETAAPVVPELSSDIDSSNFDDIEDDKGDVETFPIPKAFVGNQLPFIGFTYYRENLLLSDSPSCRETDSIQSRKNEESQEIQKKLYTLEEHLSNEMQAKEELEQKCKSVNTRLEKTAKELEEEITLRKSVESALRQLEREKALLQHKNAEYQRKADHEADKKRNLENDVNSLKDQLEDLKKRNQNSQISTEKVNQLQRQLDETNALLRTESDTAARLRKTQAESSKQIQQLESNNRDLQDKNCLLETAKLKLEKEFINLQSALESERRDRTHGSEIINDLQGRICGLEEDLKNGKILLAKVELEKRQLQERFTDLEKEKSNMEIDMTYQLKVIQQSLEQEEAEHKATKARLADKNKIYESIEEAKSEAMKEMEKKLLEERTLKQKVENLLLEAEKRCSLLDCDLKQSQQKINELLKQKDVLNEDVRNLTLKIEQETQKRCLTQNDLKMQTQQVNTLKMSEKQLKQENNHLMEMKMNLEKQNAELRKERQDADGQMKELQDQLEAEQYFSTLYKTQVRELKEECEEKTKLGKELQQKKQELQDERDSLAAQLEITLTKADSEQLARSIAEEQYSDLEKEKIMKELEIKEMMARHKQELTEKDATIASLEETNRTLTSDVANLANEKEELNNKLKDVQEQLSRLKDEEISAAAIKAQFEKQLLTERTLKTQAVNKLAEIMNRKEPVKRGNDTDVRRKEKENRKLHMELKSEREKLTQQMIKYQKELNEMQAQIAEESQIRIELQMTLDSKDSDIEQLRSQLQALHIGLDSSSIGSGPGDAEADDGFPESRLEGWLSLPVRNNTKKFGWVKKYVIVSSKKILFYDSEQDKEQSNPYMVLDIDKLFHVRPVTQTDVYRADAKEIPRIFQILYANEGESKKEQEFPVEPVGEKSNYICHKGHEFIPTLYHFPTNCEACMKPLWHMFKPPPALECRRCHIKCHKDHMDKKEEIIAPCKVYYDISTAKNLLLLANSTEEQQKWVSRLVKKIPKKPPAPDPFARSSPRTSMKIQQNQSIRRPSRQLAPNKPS

IC50 [µM]	Structure (SMILES)
0.1 to 2.2	O=C1C(NCc2ccccc2)CCN1c1ccc(-c2cn[nH]c2)cc1 (stereo not drawn) [Example 57, 1-(4-(1H-pyrazol-4-yl)phenyl)-3-(benzylamino)pyrrolidin-2-one]
0.01 to 0.1	O=C1C(Nc2ccccc2)CCN1c1ccc(-c2cn[nH]c2)cc1 (stereo not drawn) [Example 58, 1-(4-(1H-pyrazol-4-yl)phenyl)-3-(phenylamino)pyrrolidin-2-one]
0.1 to 2.2	O=C1C(NCCc2ccccc2)CCN1c1ccc(-c2cn[nH]c2)cc1 (stereo not drawn) [Example 59, 1-(4-(1H-pyrazol-4-yl)phenyl)-3-(phenethylamino)pyrrolidin-2-one, 2 TFA]
0.1 to 2.2	COc1cccc([C@@H](C)NC2CCN(c3ccc(-c4cn[nH]c4)cc3)C2=O)c1 (stereo partly drawn) [Example 60, 1-(4-(1H-pyrazol-4-yl)phenyl)-3-(((R)-1-(3-methoxyphenyl)ethyl)amino)pyrrolidin-2-one, TFA]
0.1 to 2.2	O=C1C(NCc2cccc(F)c2)CCN1c1ccc(-c2cn[nH]c2)cc1 (stereo not drawn) [Example 61, 1-(4-(1H-pyrazol-4-yl)phenyl)-3-((3-fluorobenzyl)amino)pyrrolidin-2-one, TFA]
< 0.01	O=C1C(Nc2cccc(F)c2)CCN1c1ccc(-c2cn[nH]c2)cc1 (stereo not drawn) [Example 62, 1-(4-(1H-pyrazol-4-yl)phenyl)-3-((3-fluorophenyl)amino)pyrrolidin-2-one]
< 0.01	COc1cccc(NC2CCN(c3ccc(-c4cn[nH]c4)cc3)C2=O)c1 (stereo not drawn) [Example 63, 1-(4-(1H-pyrazol-4-yl)phenyl)-3-((3-methoxyphenyl)amino)pyrrolidin-2-one]
0.01 to 0.1	O=C1C(Oc2ccccc2)CCN1c1ccc(-c2cn[nH]c2)cc1 (stereo not drawn) [Example 64, 1-(4-(1H-pyrazol-4-yl)phenyl)-3-phenoxypyrrolidin-2-one]
0.1 to 2.2	COc1cccc(C(=O)NC2CCN(c3ccc(-c4cn[nH]c4)cc3)C2=O)c1 (stereo not drawn) [Example 65, N-(1-(4-(1H-Pyrazol-4-yl)phenyl)-2-oxopyrrolidin-3-yl)-3-methoxybenzamide]
< 0.01	COc1cc(N2CCC(Nc3cccc(OC(F)F)c3)C2=O)ccc1-c1cn[nH]c1 (stereo not drawn) [Example 66, 3-((3-(Difluoromethoxy)phenyl)amino)-1-(3-methoxy-4-(1H-pyrazol-4-yl)phenyl)pyrrolidin-2-one]
< 0.01	COc1cc(N2CCC(Nc3ccccc3)C2=O)ccc1-c1cn[nH]c1 (stereo not drawn) [Example 67, 1-(3-methoxy-4-(1H-pyrazol-4-yl)phenyl)-3-(phenylamino)pyrrolidin-2-one]
< 0.01	COc1cccc(NC2CCN(c3ccc(-c4cn[nH]c4)c(OC)c3)C2=O)c1 (stereo not drawn) [Example 68, 1-(3-methoxy-4-(1H-pyrazol-4-yl)phenyl)-3-((3-methoxyphenyl)amino)pyrrolidin-2-one]
0.01 to 0.1	COc1cc(N2CCC(Nc3cccc(OC(F)F)c3)C2=O)ccc1-c1cn[nH]c1 (stereo not drawn) [Example 69, 3-((3-(difluoromethoxy)phenyl)amino)-1-(3-methoxy-4-(1H-pyrazol-4-yl)phenyl)pyrrolidin-2-one]
0.1 to 2.2	COc1cc(N2CCC(Nc3cccc(OC(F)(F)F)c3)C2=O)ccc1-c1cn[nH]c1 (stereo not drawn) [Example 70, 1-(3-methoxy-4-(1H-pyrazol-4-yl)phenyl)-3-((3-(trifluoromethoxy)phenyl)amino)pyrrolidin-2-one]
0.01 to 0.1	COc1cc(N2CCC(Nc3cccc(OC(C)C)c3)C2=O)ccc1-c1cn[nH]c1 (stereo not drawn) [Example 71, 3-((3-isopropoxyphenyl)amino)-1-(3-methoxy-4-(1H-pyrazol-4-yl)phenyl)pyrrolidin-2-one, TFA]
< 0.01	COc1cc(N2CCC(Nc3cccc(F)c3)C2=O)ccc1-c1cn[nH]c1 (stereo not drawn) [Example 72, 3-((3-fluorophenyl)amino)-1-(3-methoxy-4-(1H-pyrazol-4-yl)phenyl)pyrrolidin-2-one]
0.01 to 0.1	COc1cc(N2CCC(Nc3cccc(NS(C)(=O)=O)c3)C2=O)ccc1-c1cn[nH]c1 (stereo not drawn) [Example 73, N-(3-((1-(3-methoxy-4-(1H-pyrazol-4-yl)phenyl)-2-oxopyrrolidin-3-yl)amino)phenyl)methanesulfonamide]

IC50 [µM]	Structure (SMILES)
< 0.01	COc1cc(F)cc(NC2CCN(c3ccc(-c4cn[nH]c4)cn3)C2=O)c1 (stereo not drawn) [Example 82, 1-(5-(1H-pyrazol-4-yl)pyridin-2-yl)-3-((3-fluoro-5-methoxyphenyl)amino)pyrrolidin-2-one]
0.1 to 2.2	O=C1C(Cc2cccc(F)c2)CCN1c1ccc(-c2cn[nH]c2)cc1 (stereo not drawn) [Example 91, 1-(4-(1H-pyrazol-4-yl)phenyl)-3-(3-fluorobenzyl)pyrrolidin-2-one]
0.1 to 2.2	O=C1C(Cc2ccccc2)CCN1c1ccc(-c2cn[nH]c2)cc1 (stereo not drawn) [Example 92, 1-(4-(1H-pyrazol-4-yl)phenyl)-3-benzylpyrrolidin-2-one]
0.1 to 2.2	COc1cccc(CC2CCN(c3ccc(-c4cn[nH]c4)cc3)C2=O)c1 (stereo not drawn) [Example 93, 1-(4-(1H-pyrazol-4-yl)phenyl)-3-(3-methoxybenzyl)pyrrolidin-2-one]
0.1 to 2.2	O=C1C(Cc2c(F)cccc2F)CCN1c1ccc(-c2cn[nH]c2)cc1 (stereo not drawn) [Example 94, 1-(4-(1H-pyrazol-4-yl)phenyl)-3-(2,6-difluorobenzyl)pyrrolidin-2-one]
0.1 to 2.2	O=C1C(Cc2ccccc2Cl)CCN1c1ccc(-c2cn[nH]c2)cc1 (stereo not drawn) [Example 95, 1-(4-(1H-pyrazol-4-yl)phenyl)-3-(2-chlorobenzyl)pyrrolidin-2-one]
0.01 to 0.1	O=C1C(Cc2ccccc2F)CCN1c1ccc(-c2cn[nH]c2)cc1 (stereo not drawn) [Example 96, 1-(4-(1H-pyrazol-4-yl)phenyl)-3-(2-fluorobenzyl)pyrrolidin-2-one]
0.1 to 2.2	N#Cc1cccc(CC2CCN(c3ccc(-c4cn[nH]c4)cc3)C2=O)c1 (stereo not drawn) [Example 97, 3-((1-(4-(1H-pyrazol-4-yl)phenyl)-2-oxopyrrolidin-3-yl)methyl)benzonitrile]
0.1 to 2.2	O=C1C(Cc2ccc(F)cc2)CCN1c1ccc(-c2cn[nH]c2)cc1 (stereo not drawn) [Example 98, 1-(4-(1H-pyrazol-4-yl)phenyl)-3-(4-fluorobenzyl)pyrrolidin-2-one]
0.01 to 0.1	COc1cccc(CCC2CCN(c3ccc(-c4cn[nH]c4)cc3)C2=O)c1 (stereo not drawn) [Example 99, 1-(4-(1H-pyrazol-4-yl)phenyl)-3-(3-methoxyphenethyl)pyrrolidin-2-one]
0.1 to 2.2	O=C1C(CCc2ccccc2Cl)CCN1c1ccc(-c2cn[nH]c2)cc1 (stereo not drawn) [Example 100, 1-(4-(1H-pyrazol-4-yl)phenyl)-3-(2-chlorophenethyl)pyrrolidin-2-one]
0.01 to 0.1	O=C1C(c2ccccc2)CCN1c1ccc(-c2cn[nH]c2)cc1 (stereo not drawn) [Example 101, 1-(4-(1H-pyrazol-4-yl)phenyl)-3-phenylpyrrolidin-2-one]
0.1 to 2.2	O=C1C(c2cccc(F)c2)CCN1c1ccc(-c2cn[nH]c2)cc1 (stereo not drawn) [Example 102, 1-(4-(1H-pyrazol-4-yl)phenyl)-3-(3-fluorophenyl)pyrrolidin-2-one]
< 0.01	COc1cccc(C2CCN(c3ccc(-c4cn[nH]c4)cc3)C2=O)c1 (stereo not drawn) [Example 103, 1-(4-(1H-pyrazol-4-yl)phenyl)-3-(3-methoxyphenyl)pyrrolidin-2-one]
0.01 to 0.1	O=C1C(c2ccccc2F)CCN1c1ccc(-c2cn[nH]c2)cc1 (stereo not drawn) [Example 104, 1-(4-(1H-pyrazol-4-yl)phenyl)-3-(2-fluorophenyl)pyrrolidin-2-one]
0.01 to 0.1	O=C1C(c2ccccc2Cl)CCN1c1ccc(-c2cn[nH]c2)cc1 (stereo not drawn) [Example 105, 1-(4-(1H-pyrazol-4-yl)phenyl)-3-(2-chlorophenyl)pyrrolidin-2-one]
